The values that follow come from patent publication US7141557B2, “Lipid analogs for treating viral infections” (Wake Forest University, priority 1994, dated 2006).

For one data set, the system named is HIV-1. Briefly: Anti-HIV-1 syncytial plaque assay using CEM-SS cell monolayers. The following applies: for IC50: HIV-1 syncytial plaque formation, CEM-SS cell monolayers, plaques counted at five days; for inhibition of HIV-1 activity in CEM-SS cells: in nanomolar concentration. It counts as cell-based, human immunodeficiency virus type 1 (HIV-1). The text has this:
In brief, CEM-SS cell monolayers were infected with HIV-1. Infected cells were overlaid with RPMI-1640 medium plus 10 percent fetal bovine serum (FBS) supplemented with different concentrations of inhibitor. Plaques were counted at five days after infection. In this assay HIV-1 syncytial plaques are seen as large, multicellular foci (10 to 25 nuclei/syncytium) that appear either brown and granular or clear. Since the number of HIV-1 syncytial plaques correlates with reverse transcriptase (RT) and p24 core antigen activity in the HIV-1 infected cell overlay fluids, the syncytial plaque assay can be used to quantify the amount of infectious virus. Reverse transcriptase activity was assayed according to a described procedure (B. J. Poeisz et al., Proc. Natl. Acad. Scie. (U.S.A.) 77, 7415 (1980)). The activity of p24 core antigen induced by HIV-1 infection of CEM-SS cells was measured spectrophotometrically using the commercial Coulter EIA.

For a further data set, the system named is CEM-SS cells. Briefly: Cytotoxicity by uptake of TdR-H3 into total DNA in CEM-SS cells. The data set is classed as cell-based. The settings on record: serial concentrations of compound.
Data set [1] deals with HBV-induced DNA, core antigen (HBcAg) and "e" antigen (HBeAg). Briefly: Mechanism studies: cellular production of HBV-induced DNA, core antigen and e antigen. It counts as cell-based.
The next data set relates to HBV. Briefly: Inhibition of HBV replication in transfected HepG2 cells by ELISA. The data set is classed as cell-based. The settings on record: read-out: anti-HBV activity (IC50). The text has this: These cells constituitively replicate HBV particles.
(In an ELISA, binding on a coated surface is turned into a signal by an enzyme label.)

The test system of the next data set is HepG2 cells. The settings on record: read-out: cytotoxicity (TC50); HepG2 cells transfected with HBV genomes; neutral red dye uptake. The procedure:
Human hepatoblastomas (HepG2) cells were tranfected with plasmid DNA containing tandem copies of HBV genomes. These cells constituitively replicate HBV particles. HepG2 cells were treated with varying concentrations of CP-128 to determine the toxic cell concentration (TC50) by neutral red dye uptake. Also, the inhibitory concentration (IC50) of CP-128 for HBV replication was determined by ELISA.

By IC50 is commonly meant the midpoint of a concentration-inhibition curve. On to `CCCCCCCCCCCCOCC(COP(=O)([O-])OCC[N+](C)(C)C)OCCCCCCCCCC` (stereo not shown) [CP-129, 1-dodecyloxy-2-decyloxypropyl-3-phosphocholine], for which the concentration for half-maximal inhibition (IC50) with HIV-1 was 0.64 µM; in the data set with CEM-SS cells it was 75.7 µM. The “inhibition of HIV-1 activity in CEM-SS cells” value (shortened to “inhibition of HIV-1 activity”) in the data set on HIV-1 is “substantially inhibit”.

Turning to `CCCCCCCCCCCC(=O)NCC(COP(=O)([O-])OCC[N+](C)(C)C)OCCCCCCCC` (stereo not shown) [CP-130, 1-dodecanamido-2-octyloxypropyl-3-phosphocholine], the 50% inhibitory concentration (IC50) was determined as 0.11 µM with HIV-1 and 67.2 µM in the data set with CEM-SS cells. Besides, the “inhibition of HIV-1 activity” value in the data set on HIV-1 was “substantially inhibit”.

For the compound `CCCCCCCCCCCC(=O)NCC(COP(=O)([O-])OCC[N+](C)(C)C)OCCCCCCCCCC` (stereo not shown) [CP-128, 1-dodecanamido-2-decyloxypropyl-3-phosphocholine], the “effect on cellular production of HBV-induced DNA, core antigen (HBcAg) and "e" antigen (HBeAg)” value in data set [1] is listed as “inhibitory effect”. Moreover, the IC50 was determined as 15.6 µM in the data set on HBV, 0.14 µM in the data set on HIV-1 and 31.6 µM with CEM-SS cells. For the same compound, the “inhibition of HIV-1 activity” value in the data set on HIV-1 was “substantially inhibit”. Further, the CC50 with HepG2 cells is 61.7 µM.

For the compound `CCCCCCCCCCCCCCCCSC1CCCC(OP(=O)([O-])OCC[N+](C)(C)C)C1` (stereo not shown) [INK-1, 3-hexadecylthio-cyclohexylphosphocholine], the “inhibition of HIV-1 activity” value in the data set with HIV-1 is “substantially inhibit”.

With `CCCCCCCCCCCCOC(CNC(=O)CCCCCCCCCCC)COP(=O)([O-])OCC[N+](C)(C)C` (stereo not shown) [CP-131, 1-dodecanamido-2-dodecyloxypropyl-3-phosphocholine], in the data set on HIV-1, half-maximal inhibition (IC50) required 0.32 µM and the “inhibition of HIV-1 activity” value was “substantially inhibit”. For the same compound, the midpoint of inhibition in the data set with CEM-SS cells, the IC50, lay at 36.6 µM.
